Data: patent US20250347692A1, “METHOD FOR DETERMINING THE RESPONSE TO METHOTREXATE (MTX) IN A HUMAN SUBJECT DIAGNOSED WITH RHEUMATOID ARTHRITIS” (BIOHOPE SCIENTIFIC SOLUTIONS FOR HUMAN HEALTH, S.L, priority 2022, published 2025)

System: PBMCs from naïve RA patients
Assay: ROS TEST: ROS production of PHA-activated PBMCs exposed to MTX, fluorimetry
Format: cell-based, human
Details: PBMCs of naïve RA patients with clinical remission at 6 months of methotrexate (n=17) versus those without (n=8), E. coli stimulated, ANOVA p 0.0003
Excerpt: Therefore, the decision was made to investigate a model of in vitro exposure of RA patients' cells to MTX and the measurement of its direct effect as a pharmacodynamic biomarker of response. […] Therefore, the hypothesis is that treatment of PBMCs with the drug methotrexate causes an increase in reactive oxygen species (ROS) production due to increased apoptosis in T lymphocytes in responder patients. […] Based on the above, in the present example the above two assays will be carried out using PBMCs obtained or isolated from RA patients. Briefly, first, a peripheral blood draw is performed from a rheumatoid arthritis patient who meets the inclusion criteria indicated below in the “Methodology” section, and peripheral blood mononuclear cells (PBMCs) are isolated by density gradient. These PBMCs are frozen and maintained in liquid nitrogen for a time period of at least two weeks. After this time, the PBMCs are thawed and incubated in a flat-bottomed p96 plate at 37° C. and 5% CO2 for 24 hours. The next day, phytohemagglutinin (PHA) and MTX are added to the corresponding wells and the plate is incubated for 48 hours. Finally, the probes corresponding to each test are added: • ROS test: ROS probe+E. coli • MONOCYTE test: resazurin Both tests were carried out on the same plate, read at Ex/Em 535/610 wavelengths, in a fluorescence reader.

`CN(Cc1cnc2nc(N)nc(N)c2n1)c1ccc(C(=O)N[C@@H](CCC(=O)O)C(=O)O)cc1` [MTX, methotrexate] was tested, and the “ROS production levels (fluorescence units) after exposure of PBMCs to MTX” value was “significantly increased”.
